Test results from patent publication US20240327408A1, “COMPOUNDS CONTAINING TETRAHYDRONAPHTHYRIDINONE OR TETRAHYDROPYRIDOPYRIMIDINONE SKELETON, PREPARATION METHOD THEREFOR AND PHARMACEUTICAL USE THEREOF” (CHINA PHARMACEUTICAL UNIVERSITY, priority 2021, published 2024).

What was measured:
hClpP = biological target: T1, hClpP (Homo sapiens, UniProt Q16740); test: activating ClpP hydrolysis of FITC-casein (fluorescence kinetic detection); type: biochemical; details: hClpP 1 μM, FITC-Casein 4 μM, 37° C.
T1 construct: made in house
T1 sequence (Q16740 57-277): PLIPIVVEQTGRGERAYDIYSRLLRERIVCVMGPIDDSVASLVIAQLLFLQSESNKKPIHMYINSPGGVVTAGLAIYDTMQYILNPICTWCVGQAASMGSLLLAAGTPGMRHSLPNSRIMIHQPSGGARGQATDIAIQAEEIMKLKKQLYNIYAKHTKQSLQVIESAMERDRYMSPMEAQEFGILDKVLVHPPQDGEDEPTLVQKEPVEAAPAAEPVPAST
Procedure, shortened: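 hClpP at 1 μM final preincubated with compounds (assay-buffer dilutions 200 μM–2 nM, before mixing) 30 min at 37 °C, then 4 μM final FITC-casein added. Fluorescence read kinetically at 37 °C every 1 min for 15 min, duplicate wells.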

MV4; 11 cells = test: inhibiting the growth of MV4; 11 cells; type: cell-based; details: Homo sapiens

EC50 (hClpP) | IC50 (MV4; 11 cells) | SMILES
1000 to 10000 nM | 1000 to 10000 nM | CNc1ccc(Cn2c(=O)c3c(c4cccnc42)CCN(Cc2cccc(C#N)c2)C3)cc1 [Compound I-89, 6-(4-methylaminobenzyl)-3-(3-cyanobenzyl)-2,3,4,6-tetrahydropyrido[3,4-c][1,8]naphthyridine-5-(1H)-one]
1000 to 10000 nM | 1000 to 10000 nM | CN(C)c1ccc(Cn2c(=O)c3c(c4cccnc42)CCN(Cc2cccc(C#N)c2)C3)cc1 [Compound I-90, 6-(4-dimethylaminobenzyl)-3-(3-cyanobenzyl)-2,3,4,6-tetrahydropyrido[3,4-c][1,8]naphthyridine-5-(1H)-one]
< 1000 nM | < 1000 nM | Cc1ccc(Cn2c(=O)c3c(c4cccnc42)CCN(Cc2cccc(C#N)c2)C3)cc1 [Compound I-91, 6-(4-methylbenzyl)-3-(3-cyanobenzyl)-2,3,4,6-tetrahydropyrido[3,4-c][1,8]naphthyridine-5-(1H)-one]
< 1000 nM | < 1000 nM | Cc1ccc(Cn2c(=O)c3c(c4cccnc42)CCN(Cc2cccc(Cl)c2)C3)cc1 [Compound I-92, 6-(4-methylbenzyl)-3-(3-chlorobenzyl)-2,3,4,6-tetrahydropyrido[3,4-c][1,8]naphthyridine-5-(1H)-one]
< 1000 nM | < 1000 nM | Cc1ccc(Cn2c(=O)c3c(c4cccnc42)CCN(Cc2cccc(F)c2)C3)cc1 [Compound I-93, 6-(4-methylbenzyl)-3-(3-fluorobenzyl)-2,3,4,6-tetrahydropyrido[3,4-c][1,8]naphthyridine-5-(1H)-one]
< 1000 nM | < 1000 nM | CCc1ccc(Cn2c(=O)c3c(c4cccnc42)CCN(Cc2cccc(C#N)c2)C3)cc1 [Compound I-94, 6-(4-ethylbenzyl)-3-(3-cyanobenzyl)-2,3,4,6-tetrahydropyrido[3,4-c][1,8]naphthyridine-5-(1H)-one]
< 1000 nM | < 1000 nM | CCc1ccc(Cn2c(=O)c3c(c4cccnc42)CCN(Cc2cccc(F)c2)C3)cc1 [Compound I-95, 6-(4-ethylbenzyl)-3-(3-fluorobenzyl)-2,3,4,6-tetrahydropyrido[3,4-c][1,8]naphthyridine-5-(1H)-one]
< 1000 nM | < 1000 nM | CCc1ccc(Cn2c(=O)c3c(c4cccnc42)CCN(Cc2cccc(Cl)c2)C3)cc1 [Compound I-96, 6-(4-ethylbenzyl)-3-(3-chlorobenzyl)-2,3,4,6-tetrahydropyrido[3,4-c][1,8]naphthyridine-5-(1H)-one]
1000 to 10000 nM | 1000 to 10000 nM | O=c1c2c(c3cccnc3n1Cc1ccc3c(c1)OCCO3)CCN(Cc1cccc(Cl)c1)C2 [Compound I-97, 3-(3-chlorobenzyl)-6-((2,3-dihydro[1,4]benzodioxin-6-yl)methyl)-2,3,4,6-tetrahydropyrido[3,4-c][1,8]naphthyridine-5(1H)-one]
1000 to 10000 nM | 1000 to 10000 nM | N#Cc1cccc(CN2CCc3c(c(=O)n(Cc4ccc5c(c4)OCO5)c4ncccc34)C2)c1 [Compound I-98, 6-([1,3]benzodioxol-5-ylmethyl)-3-(3-cyanobenzyl)-2,3,4,6-tetrahydropyrido[3,4-c][1,8]naphthyridine-5-(1H)-one]
< 1000 nM | < 1000 nM | COc1ccc(Cn2c(=O)c3c(c4cccnc42)CCN(Cc2cccc(F)c2)C3)cc1 [Compound I-99, 6-(4-methoxybenzyl)-3-(3-fluorobenzyl)-2,3,4,6-tetrahydropyrido[3,4-c][1,8]naphthyridine-5-(1H)-one]
< 1000 nM | < 1000 nM | COc1ccc(Cn2c(=O)c3c(c4cccnc42)CCN(Cc2cccc(Cl)c2)C3)cc1 [Compound I-100, 6-(4-methoxybenzyl)-3-(3-chlorobenzyl)-2,3,4,6-tetrahydropyrido[3,4-c][1,8]naphthyridine-5-(1H)-one]
< 1000 nM | < 1000 nM | O=c1c2c(c3cocc3n1Cc1ccc(C(F)(F)F)cc1)CCN(Cc1ccccc1)C2 [Compound I-101, 7-benzyl-4-(4-trifluoromethylbenzyl)-6,7,8,9-tetrahydrofuro[3,4-C][2,7]naphthyridine-5(4H)-one]
< 1000 nM | < 1000 nM | O=c1c2c(c3cscc3n1Cc1ccc(C(F)(F)F)cc1)CCN(Cc1ccccc1)C2 [Compound I-102, 7-benzyl-4-(4-trifluoromethylbenzyl)-6,7,8,9-tetrahydrothieno[3,4-C][2,7]naphthyridine-5(4H)-one]
< 1000 nM | < 1000 nM | O=c1c2c(c3sccc3n1Cc1ccc(C(F)(F)F)cc1)CCN(Cc1ccccc1)C2 [Compound I-103, 7-benzyl-4-(4-trifluoromethylbenzyl)-6,7,8,9-tetrahydrothieno[3,2-C][2,7]naphthyridine-5(4H)-one]
< 1000 nM | < 1000 nM | O=c1c2c(c3ccsc3n1Cc1ccc(C(F)(F)F)cc1)CCN(Cc1ccccc1)C2 [Compound I-104, 7-benzyl-4-(4-trifluoromethylbenzyl)-6,7,8,9-tetrahydrothieno[2,3-C][2,7]naphthyridine-5(4H)-one]
1000 to 10000 nM | 1000 to 10000 nM | O=c1c2c(c3scnc3n1Cc1ccc(C(F)(F)F)cc1)CCN(Cc1ccccc1)C2 [Compound I-105, 7-benzyl-4-(4-trifluoromethylbenzyl)-6,7,8,9-tetrahydrothiazolo[4,5-C][2,7]naphthyridine-5(4H)-one]

EC50 (hClpP) | IC50 (MV4; 11 cells) | SMILES
1000 to 10000 nM | 1000 to 10000 nM | Cc1ccccc1Cn1c(=O)c2c(n3ccnc13)CCN(Cc1ccccc1)C2 [Compound I-106, 7-benzyl-4-(2-methylbenzyl)-6,7,8,9-tetrahydroimidazo[1,2-a]pyrido[3,4-e]pyrimidine-5(4H)-one]
1000 to 10000 nM | 1000 to 10000 nM | O=c1c2c(n3ccnc3n1Cc1ccccc1)CCN(Cc1ccccc1)C2 [Compound I-107, 4,7-dibenzyl-6,7,8,9-tetrahydroimidazo[1,2-a]pyrido[3,4-e]pyrimidine-5(4H)-one]
< 1000 nM | < 1000 nM | O=c1c2c(n3ccnc3n1Cc1ccccc1)CCN(Cc1cccc(F)c1)C2 [Compound I-108, 7-(3-fluorobenzyl)-4-benzyl-6,7,8,9-tetrahydroimidazo[1,2-a]pyrido[3,4-e]pyrimidine-5(4H)-one]
< 1000 nM | < 1000 nM | O=c1c2c(n3ccnc3n1Cc1ccccc1)CCN(Cc1cccc(Cl)c1)C2 [Compound I-109, 7-(3-chlorobenzyl)-4-benzyl-6,7,8,9-tetrahydroimidazo[1,2-a]pyrido[3,4-e]pyrimidine-5(4H)-one]
< 1000 nM | < 1000 nM | Cc1cccc(CN2CCc3c(c(=O)n(Cc4ccccc4)c4nccn34)C2)c1 [Compound I-110, 7-(3-methylbenzyl)-4-benzyl-6,7,8,9-tetrahydroimidazo[1,2-a]pyrido[3,4-e]pyrimidine-5(4H)-one]
< 1000 nM | < 1000 nM | N#Cc1cccc(CN2CCc3c(c(=O)n(Cc4ccccc4)c4nccn34)C2)c1 [Compound I-111, 7-(3-cyanobenzyl)-4-benzyl-6,7,8,9-tetrahydroimidazo[1,2-a]pyrido[3,4-e]pyrimidine-5(4H)-one]
< 1000 nM | < 1000 nM | O=c1c2c(n3ccnc3n1Cc1ccc(F)cc1)CCN(Cc1ccccc1)C2 [Compound I-112, 7-benzyl-4-(4-fluorobenzyl)-6,7,8,9-tetrahydroimidazo[1,2-a]pyrido[3,4-e]pyrimidine-5(4H)-one]
< 1000 nM | < 1000 nM | O=c1c2c(n3ccnc3n1Cc1ccc(F)cc1)CCN(Cc1cccc(F)c1)C2 [Compound I-113, 7-(3-fluorobenzyl)-4-(4-fluorobenzyl)-6,7,8,9-tetrahydroimidazo[1,2-a]pyrido[3,4-e]pyrimidine-5(4H)-one]
< 1000 nM | < 1000 nM | O=c1c2c(n3ccnc3n1Cc1ccc(F)cc1)CCN(Cc1cccc(Cl)c1)C2 [Compound I-114, 7-(3-chlorobenzyl)-4-(4-fluorobenzyl)-6,7,8,9-tetrahydroimidazo[1,2-a]pyrido[3,4-e]pyrimidine-5(4H)-one]
< 1000 nM | < 1000 nM | Cc1cccc(CN2CCc3c(c(=O)n(Cc4ccc(F)cc4)c4nccn34)C2)c1 [Compound I-115, 7-(3-methylbenzyl)-4-(4-fluorobenzyl)-6,7,8,9-tetrahydroimidazo[1,2-a]pyrido[3,4-e]pyrimidine-5(4H)-one]
< 1000 nM | < 1000 nM | N#Cc1cccc(CN2CCc3c(c(=O)n(Cc4ccc(F)cc4)c4nccn34)C2)c1 [Compound I-116, 7-(3-cyanobenzyl)-4-(4-fluorobenzyl)-6,7,8,9-tetrahydroimidazo[1,2-a]pyrido[3,4-e]pyrimidine-5(4H)-one]
< 1000 nM | < 1000 nM | O=c1c2c(n3ccnc3n1Cc1ccc(Cl)cc1)CCN(Cc1ccccc1)C2 [Compound I-117, 7-benzyl-4-(4-chlorobenzyl)-6,7,8,9-tetrahydroimidazo[1,2-a]pyrido[3,4-e]pyrimidine-5(4H)-one]
< 1000 nM | < 1000 nM | O=c1c2c(n3ccnc3n1Cc1ccc(Cl)cc1)CCN(Cc1cccc(F)c1)C2 [Compound I-118, 7-(3-fluorobenzyl)-4-(4-chlorobenzyl)-6,7,8,9-tetrahydroimidazo[1,2-a]pyrido[3,4-e]pyrimidine-5(4H)-one]
< 1000 nM | < 1000 nM | O=c1c2c(n3ccnc3n1Cc1ccc(Cl)cc1)CCN(Cc1cccc(Cl)c1)C2 [Compound I-119, 7-(3-chlorobenzyl)-4-(4-chlorobenzyl)-6,7,8,9-tetrahydroimidazo[1,2-a]pyrido[3,4-e]pyrimidine-5(4H)-one]
< 1000 nM | < 1000 nM | Cc1cccc(CN2CCc3c(c(=O)n(Cc4ccc(Cl)cc4)c4nccn34)C2)c1 [Compound I-120, 7-(3-methylbenzyl)-4-(4-chlorobenzyl)-6,7,8,9-tetrahydroimidazo[1,2-a]pyrido[3,4-e]pyrimidine-5(4H)-one]
< 1000 nM | < 1000 nM | N#Cc1cccc(CN2CCc3c(c(=O)n(Cc4ccc(Cl)cc4)c4nccn34)C2)c1 [Compound I-121, 7-(3-cyanobenzyl)-4-(4-chlorobenzyl)-6,7,8,9-tetrahydroimidazo[1,2-a]pyrido[3,4-e]pyrimidine-5(4H)-one]
